# From article PMC9273935, “Cooperative Binding of Substrate and Ions Drives Forward Cycling of the Human Creatine Transporter-1” (Frontiers in Physiology, 2022)
# Legend:
# [1] = molecular target: T1, human creatine transporter-1 (CRT-1, SLC6A8), C-terminally YFP-tagged (Homo sapiens, UniProt P48029); assay: whole-cell patch clamp, substrate-induced transport current in transfected HEK293 cells; format: cell-based
# T1 construct: full-length cDNA in pEYFP-N1, C-terminal YFP tag, transiently expressed in HEK293 cells; oligomeric state not known
# T1 sequence (P48029 1-635): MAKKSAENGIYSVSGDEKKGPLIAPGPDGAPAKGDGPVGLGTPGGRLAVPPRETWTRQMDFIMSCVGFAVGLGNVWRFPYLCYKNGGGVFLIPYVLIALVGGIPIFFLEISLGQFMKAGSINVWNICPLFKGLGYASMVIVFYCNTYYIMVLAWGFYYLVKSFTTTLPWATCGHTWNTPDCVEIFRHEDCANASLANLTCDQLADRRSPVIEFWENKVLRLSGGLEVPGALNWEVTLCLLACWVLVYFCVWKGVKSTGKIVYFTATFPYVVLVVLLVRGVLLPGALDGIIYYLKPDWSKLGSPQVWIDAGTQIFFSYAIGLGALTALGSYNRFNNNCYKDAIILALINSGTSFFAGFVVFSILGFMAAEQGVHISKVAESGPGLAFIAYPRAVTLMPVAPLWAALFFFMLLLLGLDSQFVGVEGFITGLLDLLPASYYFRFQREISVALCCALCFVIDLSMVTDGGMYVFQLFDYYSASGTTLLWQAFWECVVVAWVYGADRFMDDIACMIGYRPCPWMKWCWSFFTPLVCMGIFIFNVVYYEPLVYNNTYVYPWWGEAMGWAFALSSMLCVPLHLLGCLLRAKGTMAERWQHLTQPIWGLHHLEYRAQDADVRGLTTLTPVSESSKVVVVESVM
# [2] = molecular target: T1, human creatine transporter-1 (CRT-1, SLC6A8), C-terminally YFP-tagged; assay: inhibition of [3H]creatine uptake in transfected HEK293 cells; format: cell-based
EC50 [1] [µM],IC50 [2] [µM],Compound
103 ± 4,105 ± 6.7,"NC1=NCC(C(=O)O)CN1 (centres unmarked) [ATPCA, 2-amino-1,4,5,6-tetrahydropyrimidine-5-carboxylic acid]"
34.8 ± 1.9,48.4 ± 7,CN(CC(=O)O)C(=N)N [creatine]
162 ± 8.49,167 ± 9.9,NC1=NCCN1CC(=O)O [cyclocreatine]
13.2 ± 0.73,18.8 ± 1.1,N=C(N)NCCC(=O)O [β-guanidinopropionic acid]
